According to ChEMBL document CHEMBL4011651, “Discovery of the Irreversible Covalent FGFR Inhibitor 8-(3-(4-Acryloylpiperazin-1-yl)propyl)-6-(2,6-dichloro-3,5-dimethoxyphenyl)-2-(methylamino)pyrido[2,3-d]pyrimidin-7(8H)-one (PRN1371) for the Treatment of Solid Tumors” (J Med Chem, 2017):
Blank lines part the entries; values can stand above or below the molecule they belong to.

Assays:
in vitro [1] = settings: mouse, whole blood
[2] = Volume of distribution at steady state in Sprague-Dawley rat at 2 mg/kg, iv; format: ADME, organism-based; settings: in vivo, read-out: Vdss
[3] = Cmax in Beagle dog at 10 mg/kg, po; format: ADME, organism-based, Canis lupus familiaris; set-up: dose 10 mg/kg, route oral; settings: in vivo
in vivo = settings: Sprague-Dawley, rat, iv, 2 mg/kg
[4] = Plasma concentration in rat at 10 mg/kg, po measured at 1 hr post dose; format: ADME, organism-based
[5] = Cmax in Sprague-Dawley rat at 20 mg/kg, po; format: ADME, organism-based; set-up: dose 20 mg/kg, route oral; settings: in vivo
[6] = AUC in Beagle dog at 2 mg/kg, iv; format: ADME, organism-based, Canis lupus familiaris; settings: in vivo
[7] = Cmax in cynomolgus monkey at 10 mg/kg, po; format: ADME, organism-based, Macaca fascicularis; set-up: dose 10 mg/kg, route oral; settings: in vivo
[8] = AUC in cynomolgus monkey at 10 mg/kg, po; format: ADME, organism-based, Macaca fascicularis; settings: in vivo
[9] = Half life in Sprague-Dawley rat at 2 mg/kg, iv; format: ADME, organism-based; settings: in vivo
in vitro [10] = settings: human, plasma
Plasma = assay: Plasma concentration in rat at 10 mg/kg, po measured at 12 hrs post dose; format: ADME, organism-based; settings: in vivo
[11] = Half life in cynomolgus monkey at 10 mg/kg, po; format: ADME, organism-based, Macaca fascicularis; settings: in vivo
[12] = Oral bioavailability in Beagle dog at 10 mg/kg; format: ADME, organism-based, Canis lupus familiaris; settings: in vivo
[13] = Clearance in Beagle dog at 2 mg/kg, iv; format: ADME, organism-based, Canis lupus familiaris; settings: in vivo
[14] = AUC in cynomolgus monkey at 1.23 mg/kg, iv; format: ADME, organism-based, Macaca fascicularis; settings: in vivo
[15] = Half life in Sprague-Dawley rat at 20 mg/kg, po; format: ADME, organism-based; settings: in vivo
[16] = Clearance in cynomolgus monkey at 1.23 mg/kg, iv; format: ADME, organism-based, Macaca fascicularis; settings: in vivo
[17] = Clearance in Sprague-Dawley rat at 2 mg/kg, iv; format: ADME, organism-based; settings: in vivo
[18] = AUC in Beagle dog at 10 mg/kg, po; format: ADME, organism-based, Canis lupus familiaris; settings: in vivo
[19] = Cmax in cynomolgus monkey at 1.23 mg/kg, iv; format: ADME, organism-based, Macaca fascicularis; set-up: dose 1.23 mg/kg, route intravenous; settings: in vivo
[20] = AUC in Sprague-Dawley rat at 20 mg/kg, po; format: ADME, organism-based; settings: in vivo
[21] = Cmax in Beagle dog at 2 mg/kg, iv; format: ADME, organism-based, Canis lupus familiaris; set-up: dose 2 mg/kg, route intravenous; settings: in vivo
[22] = Half life in cynomolgus monkey at 1.23 mg/kg, iv; format: ADME, organism-based, Macaca fascicularis; settings: in vivo
in vitro [23] = settings: human, whole blood
[24] = Volume of distribution at steady state in Beagle dog at 2 mg/kg, iv; format: ADME, organism-based, Canis lupus familiaris; settings: in vivo, read-out: Vdss
[25] = Volume of distribution at steady state in cynomolgus monkey at 1.23 mg/kg, iv; format: ADME, organism-based, Macaca fascicularis; settings: in vivo, read-out: Vdss
[26] = Oral bioavailability in cynomolgus monkey at 10 mg/kg; format: ADME, organism-based, Macaca fascicularis; settings: in vivo
[27] = Cmax in Sprague-Dawley rat at 2 mg/kg, iv; format: ADME, organism-based; set-up: dose 2 mg/kg, route intravenous; settings: in vivo

SMILES: C=CC(=O)Nc1ccc(CCn2c(=O)c(-c3cc(OC)cc(OC)c3Cl)cc3cnc(NC)nc32)cn1
half-life (in vitro [1]): 51 min

Vd [2]: 7.2 L/kg
Cmax [3]: 1.1 µg/mL
AUC (in vivo): 0.208 µg·h/mL
concentration at 1 h [4]: 0.538 µg/mL
Cmax [5]: 1.79 µg/mL
AUC [6]: 0.284 µg·h/mL
Cmax [7]: 0.0958 µg/mL
AUC [8]: 0.0844 µg·h/mL
half-life [9]: 45.8 min
remaining at 2 h (in vitro [10]): 70%
Drug uptake (Plasma): Not Active
half-life [11]: 29.2 min
bioavailability [12]: 94%
clearance [13]: 7.02 L/h/kg
AUC [14]: 0.472 µg·h/mL
half-life [15]: 226 min
clearance [16]: 2.57 L/h/kg
clearance [17]: 9.6 L/h/kg
AUC [18]: 1.34 µg·h/mL
Cmax [19]: 0.999 µg/mL
AUC [20]: 4.35 µg·h/mL
Cmax [21]: 1.09 µg/mL
half-life [22]: 20.9 min
remaining at 2 h (in vitro [23]): 73%
Vd [24]: 2.9 L/kg
Vd [25]: 1.14 L/kg
bioavailability [26]: 2.3%
Cmax [27]: 0.596 µg/mL
SMILES: C=CC(=O)N1CCN(CCCn2c(=O)c(-c3c(Cl)c(OC)cc(OC)c3Cl)cc3cnc(NC)nc32)CC1 [PRN-1371]
